Experimental data: US20230339977A1, “SUBSTITUTED HETEROARYL COMPOUND, AND COMPOSITION AND APPLICATION THEREOF” (SUNSHINE LAKE PHARMA CO., LTD., priority 2020, published 2023)

Each molecule was assayed on JAK2/TYK2 (assay: Cell level activity test of JAK2/TYK2 (IL-12 mediated IFNγ expression in NK92 cells)). Details: NK92, 24 h, IFNγ in supernatant by ELISA, NK92 cells with IL-12, 24 h.
Format: cell-based
Excerpt: TYK2 belongs to the JAK family, and can accept the ligand acting on the coupled receptor signal to regulate downstream signal activator of transcription (STAT) phosphorylation. Phosphorylation of STAT can regulate the expression of downstream related genes, leading to changes in physiological functions such as cell proliferation and differentiation. IL-12 mediates IFNγ expression in NK92 cells through JAK2/TYK2.
Therefore, by inhibiting TYK2 activity, inhibition of this cascade pathway leads to a decrease in IFNγ expression. However, IL-2 can induce NK92 proliferation and produce IFNγ through receptor-coupled […], so the influence of IL-2 needs to be ruled out. In this experiment, the activity of compounds on JAK2/TYK2 was evaluated by detecting the expression of IFNγ at various compound concentrations.
The test compound was dissolved in DMSO, prepared into a 20 mM stock solution, and stored at -20° C. for future use. The mother solution was diluted 10 times with DMSO to make a 2 mM solution, then diluted with medium to an initial concentration of […], and then diluted 3-fold with medium containing 5% DMSO to obtain a prepared concentration gradient of […], 33333.3 nM, 11111.1 nM, 3703.70 nM, 1234.57 nM, 411.523 nM, 137.174 nM, 45.7247 nM, 15.2416 nM; 10 ul of the above-mentioned concentration of drugs were added into a 96-well plate to obtain the final concentrations of […], 3333.3 nM, 1111.1 nM, 370.4 nM, 123.5 nM, 41.1 nM, 13.7 nM, 4.6 nM, 1.52 nM;
NK92 cells were resuscitated and cultured, 16 h before the experiment, the medium was replaced with interleukin-free medium. The mixture was centrifuged and IL-12 medium was added to resuspend the cells, seeded 95 ul in a 96-well plate at a density of 20,000 cells/well, 10 ul of the above gradual dilution was added and incubated for 24 h, centrifuged to take the supernatant, diluted 3-fold with pure water, and the IFNγ concentration of the supernatant was detected by ELISA, the IC50 value was calculated.

Point of comparison: COCC(C)(C)COc1cc(-c2cn(C)c3cnc(NC(C)=O)cc23)nc2c1CCOC21CCOC1 (stereo not drawn) [Example 30, N-(3-(4′-(3-Methoxy-2,2-Dimethylpropoxy)-4,5,5′,6′-Tetrahydro-2H-Spiro[Furan-3,8′-Pyrano[3,4-b]Pyridin]-2′-yl)-1-Methyl-1H-Pyrrolo[2,3-c]Pyridin-5-yl)Acetamide], IC50 102 nM. Against it:
- CC(=O)Nc1cc2c(-c3cc(OCC(C)(C)CO)c4c(n3)C3(CCOC3)OCC4)cn(C)c2cn1 (stereo not drawn) [Example 35, N-(3-(4′-(3-Hydroxy-2,2-Dimethylpropoxy)-4,5,5′,6′-Tetrahydro-2H-Spiro[Furan-3,8′-Pyrano[3,4-b]Pyridin]-2′-yl)-1-Methyl-1H-Pyrrolo[2,3-c]Pyridin-5-yl)Acetamide] — 5-fold lower, 20.4 nM
- CC(=O)Nc1cc2c(-c3cc(OCCC(C)(C)O)c4c(n3)C3(CCOC3)OCC4)cn(C(C)C)c2cn1 (stereo not drawn) [Example 50, N-(3-(4′-(3-Hydroxy-3-Methylbutoxy)-4,5,5′,6′-Tetrahydro-2H-Spiro[Furan-3, 8′-Pyrano[3,4-b]Pyridin]-2′-yl)-1-Isopropyl-1H-Pyrrolo[2,3-c]Pyridin-5-yl)Acetamide] — 2.2-fold lower, 47 nM
